Results reported in patent US11685732B2, “MYST family histone acetyltransferase inhibitors” (Epizyme, Inc., priority 2017, dated 2023).

Assays:
KAT-6A = KAT-6A (Homo sapiens (Human), UniProt Q92794); assay: KAT-6A biochemical inhibition assay (SAMDI mass spectrometry)
Summary of the method: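 Enzyme (12.5 nM final) pre-incubated with serially diluted compounds (2% DMSO final) in 50 mM Tris pH 8.0 with Tween20, gelatin and 1 mM DTT. Reaction started with 1 μM peptide substrate and 1 μM acetyl-CoA, run 90 min at 25 °C, quenched with 0.5% formic acid, read by SAMDI-TOF mass spectrometry; IC50 derived.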

KAT-8 = KAT-8 (Homo sapiens (Human), UniProt Q9H7Z6); assay: KAT-8 biochemical inhibition assay (SAMDI mass spectrometry)
Summary of the method: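 Compounds in 2% DMSO pre-incubated with 12.5 nM enzyme in 50 mM Tris pH 8.0 with Tween20, gelatin and 1 mM DTT. Then 1 μM peptide and 5 μM acetyl-CoA were added, 90 min at 25 °C; formic acid stop and SAMDI-TOF mass spectrometry for IC50.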

KAT-7 = KAT-7 (Homo sapiens (Human), UniProt O95251); assay: KAT-7 biochemical inhibition assay (SAMDI mass spectrometry)
Summary of the method: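 KAT-7 (6 nM) was pre-incubated with serially diluted compound (2% DMSO) in Tris pH 8.0 with DTT. Reaction with 1 μM peptide and 2 μM acetyl-CoA ran 120 min at 25 °C and was stopped with 0.5% formic acid. Acetylation was read by SAMDI-TOF mass spectrometry to give IC50.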

KAT-5 = KAT-5 (Homo sapiens (Human), UniProt Q92993); assay: KAT-5 biochemical inhibition assay (SAMDI mass spectrometry)
Summary of the method: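 KAT-5 at 9 nM final was preincubated with serially diluted compound (2% DMSO) in 50 mM Tris pH 8.0 with 1 mM DTT. Reaction ran with 1 μM peptide substrate and 0.5 μM acetyl-CoA for 90 min at 25° C, was quenched with 0.5% formic acid, and was read by SAMDI-TOF mass spectrometry.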

Sequence of KAT-5 (Q92993 other isoform, or with tags, fused parts or gaps): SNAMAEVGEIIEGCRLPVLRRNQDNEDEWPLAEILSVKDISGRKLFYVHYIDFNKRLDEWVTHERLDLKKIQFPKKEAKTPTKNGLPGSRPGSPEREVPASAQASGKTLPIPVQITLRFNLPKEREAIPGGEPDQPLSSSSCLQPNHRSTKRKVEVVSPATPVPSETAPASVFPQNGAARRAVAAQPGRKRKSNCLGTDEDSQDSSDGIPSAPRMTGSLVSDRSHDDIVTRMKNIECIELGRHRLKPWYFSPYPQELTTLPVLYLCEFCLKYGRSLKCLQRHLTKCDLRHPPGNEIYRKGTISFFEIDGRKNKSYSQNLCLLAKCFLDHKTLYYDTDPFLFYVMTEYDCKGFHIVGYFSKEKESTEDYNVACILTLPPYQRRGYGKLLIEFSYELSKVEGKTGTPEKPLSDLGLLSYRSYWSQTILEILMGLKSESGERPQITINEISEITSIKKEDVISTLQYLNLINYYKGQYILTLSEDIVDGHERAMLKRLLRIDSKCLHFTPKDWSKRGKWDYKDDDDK
Sequence of KAT-7 (O95251 other isoform, or with tags, fused parts or gaps): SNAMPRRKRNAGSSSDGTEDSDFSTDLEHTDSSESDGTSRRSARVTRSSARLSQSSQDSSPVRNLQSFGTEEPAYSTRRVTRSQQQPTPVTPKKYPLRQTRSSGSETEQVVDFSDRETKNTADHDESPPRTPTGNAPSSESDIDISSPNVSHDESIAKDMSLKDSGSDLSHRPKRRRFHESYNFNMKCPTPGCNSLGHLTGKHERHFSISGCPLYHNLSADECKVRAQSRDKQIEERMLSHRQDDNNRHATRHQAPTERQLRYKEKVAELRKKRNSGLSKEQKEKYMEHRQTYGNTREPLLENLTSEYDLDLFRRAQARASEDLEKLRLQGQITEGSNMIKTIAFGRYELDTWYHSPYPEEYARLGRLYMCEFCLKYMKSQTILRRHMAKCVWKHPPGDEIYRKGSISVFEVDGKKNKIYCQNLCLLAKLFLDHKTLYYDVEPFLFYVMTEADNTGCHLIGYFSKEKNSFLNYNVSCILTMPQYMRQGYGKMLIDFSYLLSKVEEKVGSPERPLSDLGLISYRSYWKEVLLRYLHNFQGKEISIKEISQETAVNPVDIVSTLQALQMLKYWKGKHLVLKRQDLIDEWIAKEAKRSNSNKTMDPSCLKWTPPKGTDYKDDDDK
Sequence of KAT-6A (Q92794 other isoform, or with tags, fused parts or gaps): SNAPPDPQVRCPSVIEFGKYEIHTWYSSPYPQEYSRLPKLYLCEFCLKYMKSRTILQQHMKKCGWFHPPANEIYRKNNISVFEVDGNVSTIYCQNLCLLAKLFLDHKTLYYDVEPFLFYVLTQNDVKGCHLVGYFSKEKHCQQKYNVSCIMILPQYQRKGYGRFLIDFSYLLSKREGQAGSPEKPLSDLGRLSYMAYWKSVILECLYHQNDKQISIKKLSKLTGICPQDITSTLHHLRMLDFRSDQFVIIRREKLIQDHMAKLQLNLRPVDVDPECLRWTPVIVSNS
Sequence of KAT-8 (Q9H7Z6 other isoform, or with tags, fused parts or gaps): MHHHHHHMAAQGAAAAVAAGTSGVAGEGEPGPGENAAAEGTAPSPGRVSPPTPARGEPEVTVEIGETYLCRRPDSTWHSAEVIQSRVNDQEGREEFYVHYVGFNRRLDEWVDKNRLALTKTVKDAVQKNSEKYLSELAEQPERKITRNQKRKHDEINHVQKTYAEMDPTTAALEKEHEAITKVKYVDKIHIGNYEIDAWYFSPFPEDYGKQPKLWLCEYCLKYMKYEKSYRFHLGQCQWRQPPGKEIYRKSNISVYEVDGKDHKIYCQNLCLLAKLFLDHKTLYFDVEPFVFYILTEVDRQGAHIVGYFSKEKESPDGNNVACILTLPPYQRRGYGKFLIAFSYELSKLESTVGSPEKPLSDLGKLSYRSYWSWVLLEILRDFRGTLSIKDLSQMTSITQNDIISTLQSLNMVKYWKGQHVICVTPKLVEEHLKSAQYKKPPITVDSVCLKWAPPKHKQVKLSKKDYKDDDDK

Compound | IC50 (KAT-6A) [µM] | IC50 (KAT-8) [µM] | IC50 (KAT-7) [µM] | IC50 (KAT-5) [µM]
Cn1cnc(-c2cc(Cl)c(F)c(C(=O)NNC3CCS(=O)(=O)C3)c2)c1 (centres unmarked) [Compound I-232] | 10 to 50 | 10 to 50 | 10 to 50 | 10 to 50
COCCn1nc(-c2cc(Cl)c(F)c(C(=O)NNS(=O)(=O)CC3CCCCC3)c2)cc1C [Compound I-233] | 10 to 50 | 10 to 50 | < 10 | 10 to 50
Cn1cnc(-c2cc(Cl)c(F)c(C(=O)NNS(=O)(=O)CC3(C)CCOCC3)c2)c1 [Compound I-239] | 10 to 50 | 10 to 50 | < 10 | < 10
Cn1cnc(-c2cc(Cl)c(F)c(C(=O)NNS(=O)(=O)C[C@H]3CC[C@H](NC(=O)c4ccccc4)CC3)c2)c1 [Compound I-240] | < 10 | 10 to 50 | < 10 | < 10
Cn1cnc(-c2cc(Cl)c(F)c(C(=O)NNS(=O)(=O)C[C@H]3CC[C@H](NC(=O)c4cccnc4)CC3)c2)c1 [Compound I-241] | < 10 | 10 to 50 | < 10 | < 10
Cn1cnc(-c2cc(Cl)c(F)c(C(=O)NNS(=O)(=O)CC3CC4CCC(C3)O4)c2)c1 (centres unmarked) [Compound I-242] | < 10 | 10 to 50 | < 10 | < 10
Cn1cnc(-c2cc(Cl)c(F)c(C(=O)NNS(=O)(=O)CC3CCCC(NC(=O)Cc4cccnc4)C3)c2)c1 (centres unmarked) [Compound I-243] | < 10 | 10 to 50 | < 10 | < 10
Cn1cnc(-c2cc(Cl)c(F)c(C(=O)NNS(=O)(=O)CCC3CCOCC3)c2)c1 [Compound I-244] | < 10 | 10 to 50 | < 10 | < 10
Cn1cnc(-c2cc(Cl)c(F)c(C(=O)NNS(=O)(=O)C[C@H]3CC[C@H](NC(=O)c4ccccn4)CC3)c2)c1 [Compound I-245] | < 10 | 10 to 50 | < 10 | < 10
Cn1cnc(-c2cc(Cl)c(F)c(C(=O)NNS(=O)(=O)C[C@H]3CC[C@@H](NC(=O)C4CCC4)CC3)c2)c1 [Compound I-246] | < 10 | 10 to 50 | < 10 | < 10
Cn1cnc(-c2cc(Cl)c(F)c(C(=O)NNS(=O)(=O)CC3CCCC(NC(=O)Cc4ccncc4)C3)c2)c1 (centres unmarked) [Compound I-247] | < 10 | 10 to 50 | < 10 | < 10
Cn1cnc(-c2cc(Cl)c(F)c(C(=O)NNS(=O)(=O)C[C@H]3CC[C@@H](NS(C)(=O)=O)CC3)c2)c1 [Compound I-248] | < 10 | 10 to 50 | < 10 | < 10
Cn1cnc(-c2cc(Cl)c(F)c(C(=O)NNS(=O)(=O)C[C@H]3CC[C@H](NC(=O)Cc4ccccn4)CC3)c2)c1 [Compound I-249] | < 10 | 10 to 50 | < 10 | < 10
Cn1cnc(-c2cc(Cl)c(F)c(C(=O)NNS(=O)(=O)CC3CCC4CCC3N4C(=O)OC(C)(C)C)c2)c1 (centres unmarked) [Compound I-250] | 10 to 50 | 10 to 50 | < 10 | < 10

More lines, now with the values ahead:

IC50 (KAT-6A) [µM] | IC50 (KAT-8) [µM] | IC50 (KAT-7) [µM] | IC50 (KAT-5) [µM] | Compound
< 10 | 10 to 50 | < 10 | < 10 | Cn1cnc(-c2cc(Cl)c(F)c(C(=O)NNS(=O)(=O)CC3CCCC(NC(=O)Cc4ccccc4)C3)c2)c1 (centres unmarked) [Compound I-231]
< 10 | 10 to 50 | < 10 | < 10 | Cn1cnc(-c2cc(Cl)c(F)c(C(=O)NNS(=O)(=O)CC3CCCC(NC(=O)c4ccccn4)C3)c2)c1 (centres unmarked) [Compound I-234]
< 10 | 10 to 50 | < 10 | < 10 | Cn1cnc(-c2cc(Cl)c(F)c(C(=O)NNS(=O)(=O)C[C@H]3C[C@@H](NC(N)=O)C3)c2)c1 [Compound I-235]
< 10 | 10 to 50 | < 10 | < 10 | Cn1cnc(-c2cc(Cl)c(F)c(C(=O)NNS(=O)(=O)CC3CCCC(NC(=O)c4cccnc4)C3)c2)c1 (centres unmarked) [Compound I-236]
< 10 | 10 to 50 | < 10 | 10 to 50 | Cn1cnc(-c2cc(Cl)c(F)c(C(=O)NNS(=O)(=O)c3cn(C)cn3)c2)c1 [Compound I-237]
< 10 | 10 to 50 | < 10 | < 10 | Cn1cnc(-c2cc(Cl)c(F)c(C(=O)NNS(=O)(=O)CC3CCCC(NC(=O)c4ccncc4)C3)c2)c1 (centres unmarked) [Compound I-238]
